This is an account of results in ChEMBL document CHEMBL4706771, “Discovery of Orally Bioavailable Ligand Efficient Quinazolindiones as Potent and Selective Tankyrases Inhibitors” (ACS Med Chem Lett, 2021).

The target in data set [1] is T1, Cytochrome P450 1A2 (Homo sapiens, UniProt P05177).
T1 sequence (P05177 whole entry): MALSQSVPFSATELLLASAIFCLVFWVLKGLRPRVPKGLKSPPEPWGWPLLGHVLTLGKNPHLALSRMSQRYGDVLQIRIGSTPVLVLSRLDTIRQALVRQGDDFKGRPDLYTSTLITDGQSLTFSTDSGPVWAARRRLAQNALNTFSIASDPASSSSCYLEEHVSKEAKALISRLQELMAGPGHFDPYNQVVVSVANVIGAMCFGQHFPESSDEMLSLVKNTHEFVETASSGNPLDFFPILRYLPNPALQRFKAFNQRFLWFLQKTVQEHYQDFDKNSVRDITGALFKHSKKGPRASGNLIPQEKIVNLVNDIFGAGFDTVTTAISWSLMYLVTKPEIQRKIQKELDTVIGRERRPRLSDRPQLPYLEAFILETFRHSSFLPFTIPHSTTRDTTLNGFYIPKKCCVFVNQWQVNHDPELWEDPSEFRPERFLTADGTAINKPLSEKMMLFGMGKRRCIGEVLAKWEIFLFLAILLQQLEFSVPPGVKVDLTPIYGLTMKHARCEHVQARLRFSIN
Put plainly: Inhibition of CYP1A2 (unknown origin). The format is ADME.

Data set [2] is described as follows: Dose normalised AUC in C57 mouse at 3 mg/kg, po. The format is ADME, organism-based. To be noted: in vivo.
The nature of data set [3]: Dose normalised AUC in Sprague-Dawley rat at 8.6 mg/kg, po. The format is ADME, organism-based. The conditions noted are these: in vivo.
Data set [4] can be described thus: Toxicity in Wistar Han rat assessed as decrease in activity at >= 100 mg/kg, po administered for 7 days and measured on day 7. The format is organism-based. To be noted: in vivo, 168 h, time 7 day.
A short description of data set [5]: Mutagenicity in Salmonella typhimurium TA1537 by ames test. The format is toxicity. The conditions noted are these: salmonella enterica subsp. enterica serovar typhimurium.
The nature of data set [6]: Volume of distribution in C57 mouse at 3 mg/kg, po or 1 mg/kg, iv. The format is ADME, organism-based. The conditions noted are these: in vivo.
Data set [7] is described as follows: Mutagenicity in Escherichia coli WP2uvrA by ames test. The format is toxicity.
The target in data set [8] is Cytochrome P450 2C9 (Homo sapiens, UniProt P11712). Put plainly: Inhibition of CYP2C9 (unknown origin). It counts as ADME.
Cytochrome P450 2C9, sequence (P11712 whole entry): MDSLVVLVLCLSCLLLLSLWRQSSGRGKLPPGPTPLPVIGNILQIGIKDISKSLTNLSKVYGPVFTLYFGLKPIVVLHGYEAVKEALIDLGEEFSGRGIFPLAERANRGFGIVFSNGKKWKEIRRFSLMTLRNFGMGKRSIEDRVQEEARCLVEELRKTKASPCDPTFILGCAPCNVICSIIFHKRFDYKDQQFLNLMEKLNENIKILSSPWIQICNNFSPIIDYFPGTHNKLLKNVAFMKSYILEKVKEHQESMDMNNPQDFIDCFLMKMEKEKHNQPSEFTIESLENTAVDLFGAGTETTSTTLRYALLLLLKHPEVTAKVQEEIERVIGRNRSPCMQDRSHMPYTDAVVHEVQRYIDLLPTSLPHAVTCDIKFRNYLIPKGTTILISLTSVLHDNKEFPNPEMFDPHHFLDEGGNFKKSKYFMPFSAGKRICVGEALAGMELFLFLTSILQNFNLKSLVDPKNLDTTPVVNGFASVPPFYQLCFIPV
A short description of data set [9]: Toxicity in Wistar Han rat assessed as abnormal mucoid fecal consistency at >= 100 mg/kg, po administered for 7 days and measured on day 7. The format is organism-based. To be noted: in vivo, 168 h, time 7 day.
In data set [10] the target is Cytochrome P450 2C19 (Homo sapiens, UniProt P33261). Put plainly: Inhibition of CYP2C19 (unknown origin). It counts as ADME.
Cytochrome P450 2C19, sequence (P33261 whole entry): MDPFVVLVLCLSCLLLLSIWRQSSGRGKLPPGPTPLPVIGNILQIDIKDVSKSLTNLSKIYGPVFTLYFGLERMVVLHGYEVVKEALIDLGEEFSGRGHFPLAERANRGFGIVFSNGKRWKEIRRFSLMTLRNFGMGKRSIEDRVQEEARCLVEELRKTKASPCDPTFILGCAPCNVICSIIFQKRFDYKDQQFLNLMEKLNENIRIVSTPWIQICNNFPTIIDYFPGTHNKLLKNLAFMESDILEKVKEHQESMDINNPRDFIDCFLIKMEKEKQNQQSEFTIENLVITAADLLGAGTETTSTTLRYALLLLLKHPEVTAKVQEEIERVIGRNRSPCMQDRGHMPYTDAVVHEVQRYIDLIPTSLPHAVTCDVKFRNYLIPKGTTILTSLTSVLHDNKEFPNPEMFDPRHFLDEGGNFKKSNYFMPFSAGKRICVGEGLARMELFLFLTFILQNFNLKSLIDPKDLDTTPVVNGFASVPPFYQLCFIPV
Data set [11] in a line: Oral bioavailability in Sprague-Dawley rat at 8.6 mg/kg. The conditions noted are these: in vivo. The format is ADME, organism-based.
Data set [12] relates to NCI-H292. Put plainly: Antitumor activity against human NCI-H292 cells xenografted in BALB/c mouse assessed as reduction in tumor growth at 3 mg/kg, po administered for 14 days and measured on day 14. It counts as functional, organism-based. To be noted: time 14.0 day. Background: A xenograft is tissue or cells of one species grown in another, often human tumour cells in immunodeficient mice.

Data set [13] in a line: Oral bioavailability in Beagle dog at 2 mg/kg. It counts as ADME, organism-based, Canis lupus familiaris. The conditions noted are these: in vivo.

The source made the active and inactive calls. The rule behind the calls is not given here.

As usually defined, the IC50 is the midpoint of a concentration-inhibition curve.

For the compound `Cc1cccc2c1c(=O)n(C[C@H]1CC[C@H](C(=O)O)CC1)c(=O)n2Cc1cccc(C(F)(F)F)c1C#N`, the half-inhibitory concentration (IC50) in data set [1] is > 100 µM; in data set [8], 84 µM; in data set [10], 36 µM. Also, the AUC/dose in data set [2] turned out to be 5831 ng·h/mL; in data set [3], 6651 ng·h/mL. Besides, the Activity result is on record as “Toxic” in [4], “Non-Toxic” in [5], “Non-Toxic” in data set [7] and “Toxic” in data set [9]. Further, the Vd in data set [6] was 1.34 L/kg. Also, the figures for the bioavailability in data set [11] and in data set [13] were 133% and 52.2%, respectively. Besides, the outcome in [12] was Active.
